Numbering of substitutions follows the chain as printed. Where “and” joins values, the source holds several entries; their conditions need not be identical. Equal values may be shown once. Read-outs that look alike come from different tables or passages of the source. Values belong to the compound of their own block, whether it stands above or below them.
Experiments:
[1] = target: M2 muscarinic receptor (M2R), wild type (human) (UniProt P08172)
M2R [2] = target: T1, M2R (Homo sapiens, UniProt P08172, M139L/M142L/M1T/M248L/M296L/M368L/M456T/M45L); assay type: biochemical; conditions: 100 μM Ixo or 1 mM carbachol
T1 construct: We used a full-length construct M2RFL△8 M for complexing with miniGαo and β-arrestin-1; FLAG (N); 8xHis (C); made in house; host or cells: Sf9 insect cells
T1 sequence (P08172 1-466 M1T/M45L/M139L/M142L/M248L/M296L/M368L/M456T): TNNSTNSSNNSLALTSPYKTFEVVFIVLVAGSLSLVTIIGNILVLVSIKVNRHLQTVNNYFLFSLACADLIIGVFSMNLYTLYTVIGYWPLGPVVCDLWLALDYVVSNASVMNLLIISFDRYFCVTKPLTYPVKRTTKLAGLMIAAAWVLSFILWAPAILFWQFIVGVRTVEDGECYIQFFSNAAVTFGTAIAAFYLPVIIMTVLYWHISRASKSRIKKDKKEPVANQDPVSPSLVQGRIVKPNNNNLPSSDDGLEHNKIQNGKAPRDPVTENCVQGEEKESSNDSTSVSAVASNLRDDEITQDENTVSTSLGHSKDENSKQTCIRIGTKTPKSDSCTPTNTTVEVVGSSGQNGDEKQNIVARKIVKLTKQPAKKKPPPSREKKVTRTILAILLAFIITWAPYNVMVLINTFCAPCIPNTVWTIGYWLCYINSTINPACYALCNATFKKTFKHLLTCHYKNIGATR
Experimental: We used a full-length construct M2RFL△8 M for complexing with miniGαo and β-arrestin-1. The receptor was purified as described above for cryo-EM sample. Excess GRK2 was mixed with the M2R in a buffer composed of 20 mM HEPES pH 7.5, 100 mM NaCl, 0.01% MNG, 0.003% CHS, 500 μM ATP in the presence and absence of 100 μM Ixo or 1 mM carbachol to initiate the phosphorylation at room temperature. The extent of phosphorylation at various time points (from 0 to 120 min) was evaluated by Pro-Q and Coomassie blue staining. The final phosphorylated receptor (Ixo-bound) was further evaluated by ion-exchange chromatography. The complex formation test was performed as follows: unphosphorylated Ixo-bound M2RFL△8 M or phosphorylated M2RFL△8 M was mixed with miniGαo or β-arrestin-1, respectively and incubated on ice for 30 min. The receptor alone or mixed complex sample were then analyzed by SEC against 20 mM HEPES pH 7.5, 100 mM NaCl, 0.01% MNG, 0.003% CHS in the presence of 10 μM Ixo.

M2R [3] = target: T2, M2R (Homo sapiens, UniProt P08172)
T2 sequence (P08172 1-466): T1 sequence (P08172 1-466 M1T/M45L/M139L/M142L/M248L/M296L/M368L/M456T) with T1M, L45M, L139M, L142M, L248M, L296M, L368M, T456M

M2R and GoA = target: T3, M2R and GoA (Homo sapiens, UniProt P08172); experiment: GTPase-Glo assay (GTP turnover) with purified M2R and GoA; assay type: biochemical; conditions: purified wild-type receptor and G-protein
T3 construct: FLAG (N); 8xHis (C); made in house; host or cells: Sf9 insect cells (receptor)
Experimental: The receptors for GTPase-Glo^TM assay were expressed and purified as described above and frozen at −80 °C before use. […] The GTPase reaction was incubated at room temperature (22–25 °C) for different times (15–90 min). […] After incubation, 5 μL reconstituted 1xGTPase-Glo^TM Reagent (Promega) was added to the completed GTPase reaction, mixed briefly and incubated with shaking for 30 min at room temperature (22–25 °C) to convert the remaining GTP into ATP. Then 10 μL Detection Reagent (Promega) was added to the system and incubated for 5-10 min at room temperature (22–25 °C) to convert the ATP into luminescent signals. Luminescence intensity was quantified using a Multimode Plate Reader (PerkinElmer) luminescence counter.

M2R [4] = target: T2, M2R; experiment: cell-based; design: expressed in transfected cells; host or cells: HEK 293T; conditions: for Emax: HEK-293T
Experimental: Determination of β-arrestin-2 recruitment was performed applying the PathHunter assay (DiscoverX, Birmingham, U.K.) which is based on fragment complementation of β-galactosidase as described. In detail, HEK293T cells were transfected with the flag-tagged M2 receptor carrying the PKA fragment for enzyme complementation and transferred into 384-well micro plates. […] Determination of chemoluminescence was done with a Clariostar plate reader (BMG, Ortenberg, Germany). […] Normalized curves from three to five individual experiments each done in duplicate were analyzed by non-linear regression applying the algorithms in Prism 8.0 (GraphPad, San Diego, CA) to get dose-response curves representing average EC50 and Emax value.

increase of the affinity of ACh in [3H]-NMS competition binding on M2R in HDL particles on addition of GoA [1]: 65 fold | increase of the affinity of Ixo in [3H]-NMS competition binding on M2R in HDL particles on addition of GoA [1]: 27 fold
Compound: heterotrimeric GoA protein (from UniProt P09471 1-354; P62873 2-340; P59768 1-71) (complex)

Phosphorylation intensity (M2R [2]; Time 5 min): 334.849 | Phosphorylation intensity (M2R [2]; Time 10 min): 686.698 | Phosphorylation intensity (M2R [2]; Time 15 min): 1559.5 | Phosphorylation intensity (M2R [2]; Time 30 min): 4508.03 | Phosphorylation intensity (M2R [2]; Time 60 min): 11137.8 | Phosphorylation intensity (M2R [2]; Time 120 min): 15286
Compound: C[N+](C)(C)CCOC(N)=O [Carbachol, carbachol]

Compound: Cc1c(Cl)c(OCC(=O)N2CCN(C)CC2)nc2sc(C(=O)NC3CC3)c(N)c12 [LY2119620]
activation of the receptor by the modulator on its own (M2R [3]): can activate the receptor on its own with low efficacy | IP accumulation as % max effect of acetylcholin (M2R [3]; LY2119620 alone log [M] -4): 59.0% and 70.9% and 76.8% and 52.3% and 51.5% and 62.7% and 67.1% | IP accumulation as % max effect of acetylcholin (M2R [3]; LY2119620 alone log [M] -10): 3.3% and -1.8% and -2.5% and -3.4% and 3.1% | inhibition of maximal G-protein activation of both orthosteric agonists (M2R [3]; high concentrations of LY2119620): ~ 10% | effect on GTP-turnover for both ACh and Ixo (M2R and GoA): significant inhibitory effects | Emax (M2R [4]; read-out: arrestin recruitment as % max effect of acetylcholin, LY2119620 log [M] 3-4): 46.3% | Emax (M2R [4]; read-out: arrestin recruitment as % max effect of acetylcholin, LY2119620 log [M] 3-5): 52.5% | Emax (M2R [4]; read-out: arrestin recruitment as % max effect of acetylcholin, LY2119620 log [M] -5): 42.1% | arrestin recruitment as % max effect of acetylcholin (M2R [4]; LY2119620 log [M] 3-4): 48.9% | arrestin recruitment as % max effect of acetylcholin (M2R [4]; LY2119620 log [M] 3-5): 50.0% and 48.5% | arrestin recruitment as % max effect of acetylcholin (M2R [4]; LY2119620 log [M] 3-7): -0.0286% and 2.4% | arrestin recruitment as % max effect of acetylcholin (M2R [4]; LY2119620 log [M] -4): 58.7% and 38.0% and 68.2% and 60.8% and 51.7% | arrestin recruitment as % max effect of acetylcholin (M2R [4]; LY2119620 log [M] -5): 33.4% and 43.9% and 30.6% and 32.3% | arrestin recruitment as % max effect of acetylcholin (M2R [4]; LY2119620 log [M] -6): 10.6% and 7.5% and 6.2% and 2.4% and 3.8% | arrestin recruitment as % max effect of acetylcholin (M2R [4]; LY2119620 log [M] -7): 2.1% and 1.5% and 2.0% and 0.9% and 2.9% | arrestin recruitment as % max effect of acetylcholin (M2R [4]; LY2119620 log [M] -8): 0.6% and 0.5% and 0.9% and -0.171% and -0.548% | arrestin recruitment as % max effect of acetylcholin (M2R [4]; LY2119620 log [M] -9): 1.3% and -0.4% and -1.2% and -3.6%

From publication PMC9870890 (Nature Communications, 2023)
